Tests used:
[1] = biological target: T1, TXA2/PGH2 receptor (Homo sapiens, UniProt P21731); assay: Receptor Binding Assay ([125I]IBOP, platelet membranes); conditions: 30 °C for 30 min
T1 construct: Membranes from outdated human platelets were prepared as previously described; from tissue; host or cells: human platelets (membranes)
T1 sequence (P21731 1-343): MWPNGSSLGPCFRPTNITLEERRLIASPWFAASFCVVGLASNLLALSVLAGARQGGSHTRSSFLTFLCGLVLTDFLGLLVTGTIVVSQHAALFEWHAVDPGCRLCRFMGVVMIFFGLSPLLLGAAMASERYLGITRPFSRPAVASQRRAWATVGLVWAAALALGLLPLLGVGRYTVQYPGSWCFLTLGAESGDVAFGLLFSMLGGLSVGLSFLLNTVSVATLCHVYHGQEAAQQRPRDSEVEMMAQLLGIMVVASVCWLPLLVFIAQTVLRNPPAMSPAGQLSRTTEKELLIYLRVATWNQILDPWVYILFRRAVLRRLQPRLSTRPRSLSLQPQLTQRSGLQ
Procedure: (§1) Measurement of Thromboxane Receptor Antagonism:
(§2) • 1. Receptor Binding Assay. Membranes from outdated human platelets were prepared as previously described (Mais, D. E., et al., Eur. J. Pharmacol. (1992), 227, 267-274). Incubations (220 µL) containing 10 µg of platelet membranes were performed in siliconized glass tubes (12 x 75 mm) at 30 °C for 30 min. The incubation media consisted of 10 mM Hepes, 2 mM CHAPS, 10 µM Indomethacin (pH = 7.4), ∼0.05 nM (∼25000 cpm) of [^125I]IBOP per tube, and varying concentrations of competing ligands ranging from 10^-10 to 10^-5 M. The reaction was terminated by addition of 4 mL of ice cold buffer (25 mM Tris) at pH 7.4, followed by rapid filtration through Whatman GF/C glass filters pre-soaked in 0.3% polyethyleneamine (Whatman, Inc., Clifton, NJ) using a Brandel M-24 cell harvester (Gaithersburg, MD). Non-specific binding was defined as that amount of radioactivity bound in the presence of a large molar excess (10 µM) of SQ29548, a potent TXA2/PGH2 receptor antagonist. The binding in this assay is defined in terms of the dissociation constant Kd. […] Platelet Aggregation Studies. The ability of a test compound to antagonize TXA2/PGH2 receptor-induced human platelet aggregation was studied in the following manner. Blood was collected from volunteers who denied taking any medication known to influence platelet aggregation within the previous 10 days. […] Platelet-rich plasma was prepared by centrifugation at 100 x g for 12 min, and platelet-poor plasma was prepared by centrifugation at 12,000 x g for 2 min. Receptor activation and subsequent platelet aggregation was induced by the addition of the stable analog of TXA2/PGH2, U46619 (1 micromolar). Aggregation was monitored in a Biodata PAP4 platelet aggregation profiler for 3 min after the addition of U46619. Test compound or vehicle was preincubated with platelet-rich plasma for 1 min at 37 °C prior to the induction of aggregation with U46619.

[2] = test system: TXA2/PGH2 receptor-induced human platelet aggregation; assay: Platelet Aggregation Studies (U46619-induced aggregation in platelet-rich plasma); assay type: cell-based; conditions: read-out: IC50, concentration of test compound required to inhibit U46619-induced platelet aggregation by 50%, U46619 (1 micromolar), 1 min preincubation at 37 °C
Procedure: as §1, §2

[3] = biological target: T2, thromboxane synthase (Homo sapiens, UniProt P24557); assay: Thromboxane synthase inhibition in vitro (whole human blood, serum TXB2 by radioimmunoassay); assay type: cell-based; conditions: 30 min at 37 °C
T2 construct: from tissue; host or cells: whole human blood
T2 sequence (P24557 1-533): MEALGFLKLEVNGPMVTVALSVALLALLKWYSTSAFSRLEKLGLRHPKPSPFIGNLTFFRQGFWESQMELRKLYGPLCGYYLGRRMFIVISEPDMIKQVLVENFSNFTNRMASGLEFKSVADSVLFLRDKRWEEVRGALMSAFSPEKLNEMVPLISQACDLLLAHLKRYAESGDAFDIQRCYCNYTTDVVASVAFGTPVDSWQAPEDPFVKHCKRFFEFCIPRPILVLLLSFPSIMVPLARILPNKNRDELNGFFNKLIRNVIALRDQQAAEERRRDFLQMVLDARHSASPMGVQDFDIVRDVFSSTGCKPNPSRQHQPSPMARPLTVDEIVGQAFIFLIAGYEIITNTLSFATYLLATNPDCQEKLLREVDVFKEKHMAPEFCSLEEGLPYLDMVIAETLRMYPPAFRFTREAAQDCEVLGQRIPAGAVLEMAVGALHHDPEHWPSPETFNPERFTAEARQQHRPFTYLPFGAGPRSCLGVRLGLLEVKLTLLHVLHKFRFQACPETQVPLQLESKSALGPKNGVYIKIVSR
Procedure: Measurement of Thromboxane Synthase Inhibition and Prostacyclin Formation:
(§3) • 1. In vitro Experiments. The ability of a test compound to inhibit thromboxane synthase, as well as to change the amount of prostacyclin formed, were measured using published methods. […] Serum TXB2 and 6-keto-PGF1a, the stable metabolites of TXA2 and prostacyclin (PGI2), respectively, were measured by radioimmunoassay as described (Jakubowski, J.A., et al., Arteriosclerosis, (1987), 7, 599-604). The ability of a test compound to inhibit thromboxane synthase is expressed in the form of its IC50. […] Sprague Dawley rats (300 g males) were dosed by oral gavage with either vehicle (5% acacia) or 1-10 mg/kg test compound. Blood samples were collected 1 h after dosing. Animals were anesthetized (sodium pentobarbitol, 87 mg/kg i.p.) 15 min before sample collection. Blood samples were obtained by cardiac puncture via a butterfly catheter and the first mL of blood was discarded. Blood samples were divided into duplicates and incubated at 37 °C for 1 h in 13x100 mm glass tubes. Serum was separated by centrifugation at 2000 x g for 15 min at 25 °C, transferred to polypropylene tubes, and stored at -20 °C for subsequent assay using the methods referenced above.

[4] = test system: pithed rats; assay: Absence of Agonist Activity (pressor response after i.v. administration); assay type: in vivo
[5] = test system: TXA2 formation; assay: Ex vivo inhibition of TXA2 formation following oral administration; assay type: in vivo; conditions: Rattus norvegicus, 1 h, Sprague Dawley rats, oral gavage, one hour after dosing
Procedure: as §3

SMILES | Kd [1] [nM] | IC50 [2] [nM] | IC50 [3] [nM] | other results
CC(OCCCNC(=O)c1coc(-c2ccc(/C(=C\CCCCC(=O)O)c3cccnc3)cc2)n1)C1CCCCC1 (centres unmarked) [Example 26, (E)-7-[4-[4-[[[3-(1-Cyclohexylethoxy)propyl]amino]carbonyl)-2-oxazolyl]phenyl]-7-(3-pyridyl)hept-6-enoic Acid] | 58.2 | 5000 | 11.5 | 
O=C(O)CCCC/C=C(/c1ccc(C2=N[C@H](C(=O)NCCCCC3CCCCC3)CO2)cc1)c1cccnc1 [Example 3, (4S)-(Z)-7-[4-[4-[[(4-Cyclohexylbutyl)amino]carbonyl]-4,5-dihydro-2-oxazolyl]phenyl]-7-(3-pyridyl)hept-6-enoic Acid] |  |  | > 10000 | 
O=C(O)CCCC/C=C(/c1ccc(-c2nc(C(=O)NCCCCC3CCCCC3)co2)cc1)c1cccnc1 [Example 4, (Z)-7-[4-[4-[[(4-Cyclohexylbutyl)amino]carbonyl]-2-oxazolyl]phenyl]-7-(3-pyridyl)hept-6-enoic Acid] |  |  | > 10000 | 
O=C(O)CCCC/C=C(\c1ccc(-c2nc(C(=O)NCCCCOc3ccccc3)co2)cc1)c1cccnc1 [Example 30, (E)-7-[4-[4-[[(4-Phenoxybutyl)amino]carbonyl]-2-oxazolyl]phenyl]-7-(3-pyridyl)hept-6-enoic Acid] | 52.2 | 500 | 48.9 | 
O=C(O)CCCC/C=C(\c1ccc(C2=N[C@H](C(=O)NCCCCC3CCCCC3)CO2)cc1)c1cccnc1 [Example 1, (4S)-(E)-7-[4-[4-[[(4-Cyclohexylbutyl)amino]carbonyl]-4,5-dihydro-2-oxazolyl]phenyl]-7-(3-pyridyl)hept-6-enoic Acid] |  |  | 82.1 | 
O=C(O)CCCC/C=C(\c1ccc(-c2nc(C(=O)NCCCCC3CCCCC3)co2)cc1)c1cccnc1 [Example 2, (E)-7-[4-[4-[[(4-Cyclohexylbutyl)amino]carbonyl]-2-oxazolyl]phenyl]-7-(3-pyridyl)hept-6-enoic Acid] | 9.9 | 400 | 55 | pressor response (TXA2 agonist activity) ([4]; pithed rats, i.v., doses up to 10 mg/kg): absence of a pressor response; inhibition at 3 mg/kg [5]: > 95%
O=C(O)CCCC/C=C(\c1ccc(-c2nc(C(=O)NCCCN3CCOCC3)co2)cc1)c1cccnc1 [Example 27, (E)-7-[4-[4-[[(3-Morpholinopropyl)amino]carbonyl]-2-oxazolyl]phenyl]-7-(3-pyridyl)hept-6-enoic Acid] | > 10000 |  |  | 
O=C(O)CCCC/C=C(\c1ccc(-c2nc(C(=O)N[C@@H]3C[C@H]3c3ccccc3)co2)cc1)c1cccnc1 (single isomer, unassigned) [Example 19, (+)-(E)-7-[4-[4-[[(2-(trans)Phenylcyclopropyl)amino]carbonyl]-2-oxazolyl]phenyl]-7-(3-pyridyl)hept-6-enoic Acid] |  | 5000 |  | 
O=C(O)CCC/C=C\C[C@H]1[C@@H]2CC[C@@H](C2)[C@@H]1NS(=O)(=O)c1ccccc1 [Example S-145, reference compound] |  |  |  | mean arterial pressure ([4]; one minute after dosing at 0.1 mg/kg i.v.): transient, but significant, increase
